Tests used:
[1] = target: T1, Orexin/Hypocretin receptor type 1 (Homo sapiens, UniProt O43613); assay: Displacement of […]5IBOM from OX1R (unknown origin) transfected in CHO cells assessed as inhibition constant incubated for 1.5 hrs by automated gamma-counter analysis; format: cell-based
T1 sequence (O43613 whole entry): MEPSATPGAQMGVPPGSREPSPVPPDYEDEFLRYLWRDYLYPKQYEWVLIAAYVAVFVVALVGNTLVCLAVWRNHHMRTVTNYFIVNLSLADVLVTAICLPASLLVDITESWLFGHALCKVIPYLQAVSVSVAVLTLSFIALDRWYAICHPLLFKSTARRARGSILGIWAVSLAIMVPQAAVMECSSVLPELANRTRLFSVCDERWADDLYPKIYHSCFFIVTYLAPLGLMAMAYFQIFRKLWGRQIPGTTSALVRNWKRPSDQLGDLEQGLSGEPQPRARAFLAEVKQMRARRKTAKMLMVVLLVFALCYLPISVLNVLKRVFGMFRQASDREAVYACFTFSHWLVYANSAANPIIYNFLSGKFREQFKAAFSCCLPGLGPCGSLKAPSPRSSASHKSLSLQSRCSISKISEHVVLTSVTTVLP

[2] = organism: Homo sapiens; assay: Selectivity ratio of IC50 for recombinant human OX2R extracted from HEK293T cell membrane to IC50 for recombinant human OX1R extracted from HEK293T cell membrane
[3] = target: T2, Orexin receptor type 2 (Homo sapiens, UniProt O43614); assay: Displacement of [3H]EMPA from recombinant human OX2R extracted from HEK293T membrane by radioligand binding assay; format: cell membranes
T2 sequence (O43614 whole entry): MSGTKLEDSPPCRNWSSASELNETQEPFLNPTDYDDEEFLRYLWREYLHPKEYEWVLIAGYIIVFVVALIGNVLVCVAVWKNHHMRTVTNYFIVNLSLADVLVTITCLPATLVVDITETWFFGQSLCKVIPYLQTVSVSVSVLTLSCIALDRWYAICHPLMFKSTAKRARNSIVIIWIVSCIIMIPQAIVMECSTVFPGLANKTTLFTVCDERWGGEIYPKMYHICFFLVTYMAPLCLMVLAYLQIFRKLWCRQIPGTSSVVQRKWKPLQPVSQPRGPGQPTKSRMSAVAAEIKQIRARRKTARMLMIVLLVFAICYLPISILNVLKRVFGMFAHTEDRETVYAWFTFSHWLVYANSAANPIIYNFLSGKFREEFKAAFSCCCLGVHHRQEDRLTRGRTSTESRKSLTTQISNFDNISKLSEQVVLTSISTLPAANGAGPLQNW

[4] = target: T1, Orexin/Hypocretin receptor type 1; assay: Displacement of [3H]SB-674042 from recombinant human OX1R extracted from HEK293T membrane by radioligand binding assay; format: cell membranes
[5] = target: T2, Orexin receptor type 2; assay: Displacement of […]5IBOM from OX2R (unknown origin) transfected in CHO cells assessed as inhibition constant incubated for 1.5 hrs by automated gamma-counter analysis; format: cell-based
[6] = Selectivity ratio of Ki for OX2R (unknown origin) transfected in CHO cells to Ki for OX1R (unknown origin) transfected in CHO cells; format: cell-based
[7] = Biodistribution in male ddY mouse intestine administered intravenously and measured at 10 mins postinjection by gamma counter analysis; format: ADME, organism-based; conditions: in vivo, iv
[8] = Biodistribution in male ddY mouse brain administered intravenously and measured at 10 mins postinjection by gamma counter analysis; format: ADME, organism-based; conditions: in vivo, iv
[9] = Biodistribution in male ddY mouse heart administered intravenously and measured at 2 mins postinjection by gamma counter analysis; format: ADME, organism-based; conditions: in vivo, iv
[10] = Biodistribution in male ddY mouse bone administered intravenously and measured at 30 mins postinjection by gamma counter analysis; format: ADME, organism-based, Bone element; conditions: in vivo, iv, 0.5 h
[11] = Biodistribution in male ddY mouse liver administered intravenously and measured at 30 mins postinjection by gamma counter analysis; format: ADME, organism-based; conditions: in vivo, iv, 0.5 h
[12] = Biodistribution in male ddY mouse kidney administered intravenously and measured at 10 mins postinjection by gamma counter analysis; format: ADME, organism-based; conditions: in vivo, iv
[13] = Biodistribution in male ddY mouse pancreas administered intravenously and measured at 60 mins postinjection by gamma counter analysis; format: ADME, organism-based; conditions: in vivo, iv, 1 h
[14] = Biodistribution in male ddY mouse intestine administered intravenously and measured at 60 mins postinjection by gamma counter analysis; format: ADME, organism-based; conditions: in vivo, iv, 1 h
[15] = Biodistribution in male ddY mouse kidney administered intravenously and measured at 30 mins postinjection by gamma counter analysis; format: ADME, organism-based; conditions: in vivo, iv, 0.5 h
[16] = Biodistribution in male ddY mouse stomach administered intravenously and measured per organ at 2 mins postinjection by gamma counter analysis; format: ADME, organism-based; conditions: in vivo, iv
[17] = Biodistribution in male ddY mouse pancreas administered intravenously and measured at 2 mins postinjection by gamma counter analysis; format: ADME, organism-based; conditions: in vivo, iv
[18] = Biodistribution in male ddY mouse stomach administered intravenously and measured per organ at 10 mins postinjection by gamma counter analysis; format: ADME, organism-based; conditions: in vivo, iv
[19] = Biodistribution in male ddY mouse lung administered intravenously and measured at 2 mins postinjection by gamma counter analysis; format: ADME, organism-based; conditions: in vivo, iv
[20] = Biodistribution in male ddY mouse spleen administered intravenously and measured at 30 mins postinjection by gamma counter analysis; format: ADME, organism-based; conditions: in vivo, iv, 0.5 h
[21] = Biodistribution in male ddY mouse bone administered intravenously and measured at 2 mins postinjection by gamma counter analysis; format: ADME, organism-based, Bone element; conditions: in vivo, iv
[22] = Biodistribution in male ddY mouse blood administered intravenously and measured at 30 mins postinjection by gamma counter analysis; format: ADME, organism-based; conditions: in vivo, iv, 0.5 h
[23] = Biodistribution in male ddY mouse spleen administered intravenously and measured at 2 mins postinjection by gamma counter analysis; format: ADME, organism-based; conditions: in vivo, iv
[24] = Biodistribution in male ddY mouse stomach administered intravenously and measured per organ at 30 mins postinjection by gamma counter analysis; format: ADME, organism-based; conditions: in vivo, iv, 0.5 h
[25] = Biodistribution in male ddY mouse blood administered intravenously and measured at 60 mins postinjection by gamma counter analysis; format: ADME, organism-based; conditions: in vivo, iv, 1 h
[26] = Biodistribution in male ddY mouse liver administered intravenously and measured at 2 mins postinjection by gamma counter analysis; format: ADME, organism-based; conditions: in vivo, iv
[27] = Biodistribution in male ddY mouse spleen administered intravenously and measured at 60 mins postinjection by gamma counter analysis; format: ADME, organism-based; conditions: in vivo, iv, 1 h
[28] = Biodistribution in male ddY mouse brain administered intravenously and measured at 60 mins postinjection by gamma counter analysis; format: ADME, organism-based; conditions: in vivo, iv, 1 h
[29] = Biodistribution in male ddY mouse heart administered intravenously and measured at 10 mins postinjection by gamma counter analysis; format: ADME, organism-based; conditions: in vivo, iv
[30] = Biodistribution in male ddY mouse bone administered intravenously and measured at 60 mins postinjection by gamma counter analysis; format: ADME, organism-based, Bone element; conditions: in vivo, iv, 1 h
[31] = Biodistribution in male ddY mouse heart administered intravenously and measured at 60 mins postinjection by gamma counter analysis; format: ADME, organism-based; conditions: in vivo, iv, 1 h
[32] = Biodistribution in male ddY mouse blood administered intravenously and measured at 2 mins postinjection by gamma counter analysis; format: ADME, organism-based; conditions: in vivo, iv
[33] = Biodistribution in male ddY mouse bone administered intravenously and measured at 10 mins postinjection by gamma counter analysis; format: ADME, organism-based, Bone element; conditions: in vivo, iv
[34] = Biodistribution in male ddY mouse lung administered intravenously and measured at 10 mins postinjection by gamma counter analysis; format: ADME, organism-based; conditions: in vivo, iv
[35] = Biodistribution in male ddY mouse brain administered intravenously and measured at 2 mins postinjection by gamma counter analysis; format: ADME, organism-based; conditions: in vivo, iv
[36] = Biodistribution in male ddY mouse intestine administered intravenously and measured at 2 mins postinjection by gamma counter analysis; format: ADME, organism-based; conditions: in vivo, iv
[37] = Biodistribution in male ddY mouse liver administered intravenously and measured at 10 mins postinjection by gamma counter analysis; format: ADME, organism-based; conditions: in vivo, iv
[38] = Biodistribution in male ddY mouse brain administered intravenously and measured at 30 mins postinjection by gamma counter analysis; format: ADME, organism-based; conditions: in vivo, iv, 0.5 h
[39] = Biodistribution in male ddY mouse blood administered intravenously and measured at 10 mins postinjection by gamma counter analysis; format: ADME, organism-based; conditions: in vivo, iv
[40] = Biodistribution in male ddY mouse stomach administered intravenously and measured per organ at 60 mins postinjection by gamma counter analysis; format: ADME, organism-based; conditions: in vivo, iv, 1 h
[41] = Biodistribution in male ddY mouse pancreas administered intravenously and measured at 30 mins postinjection by gamma counter analysis; format: ADME, organism-based; conditions: in vivo, iv, 0.5 h
[42] = Biodistribution in male ddY mouse pancreas administered intravenously and measured at 10 mins postinjection by gamma counter analysis; format: ADME, organism-based; conditions: in vivo, iv
[43] = Biodistribution in male ddY mouse spleen administered intravenously and measured at 10 mins postinjection by gamma counter analysis; format: ADME, organism-based; conditions: in vivo, iv
[44] = Biodistribution in male ddY mouse heart administered intravenously and measured at 30 mins postinjection by gamma counter analysis; format: ADME, organism-based; conditions: in vivo, iv, 0.5 h
[45] = Biodistribution in male ddY mouse kidney administered intravenously and measured at 2 mins postinjection by gamma counter analysis; format: ADME, organism-based; conditions: in vivo, iv
[46] = Biodistribution in male ddY mouse lung administered intravenously and measured at 60 mins postinjection by gamma counter analysis; format: ADME, organism-based; conditions: in vivo, iv, 1 h
[47] = Biodistribution in male ddY mouse lung administered intravenously and measured at 30 mins postinjection by gamma counter analysis; format: ADME, organism-based; conditions: in vivo, iv, 0.5 h
[48] = Biodistribution in male ddY mouse intestine administered intravenously and measured at 30 mins postinjection by gamma counter analysis; format: ADME, organism-based; conditions: in vivo, iv, 0.5 h
[49] = Biodistribution in male ddY mouse liver administered intravenously and measured at 60 mins postinjection by gamma counter analysis; format: ADME, organism-based; conditions: in vivo, iv, 1 h
[50] = Biodistribution in male ddY mouse kidney administered intravenously and measured at 60 mins postinjection by gamma counter analysis; format: ADME, organism-based; conditions: in vivo, iv, 1 h

## Cc1ccc(-n2nccn2)c(C(=O)N2CCCN(c3nc4cc(Cl)ccc4o3)C[C@@H]2C)c1
[1]
  Ki: 1.12 nM
[2]
  Ratio IC50: 2.4
[3]
  IC50: 2 nM
[4]
  IC50: 0.83 nM
[5]
  Ki: 9.79 nM
[6]
  Ratio Ki: 8.71

## Cc1ccc(-n2nccn2)c(C(=O)N2CCCN(c3nc4cc([18F])ccc4s3)C[C@@H]2C)c1
[7]
  Drug uptake: 8.75 % ID/g
[8]
  Drug uptake: 1.49 % ID/g
[9]
  Drug uptake: 9.03 % ID/g
[10]
  Drug uptake: 25.8 % ID/g
[11]
  Drug uptake: 10.1 % ID/g
[12]
  Drug uptake: 7.95 % ID/g
[13]
  Drug uptake: 0.53 % ID/g
[14]
  Drug uptake: 15.3 % ID/g
[15]
  Drug uptake: 4.53 % ID/g
[16]
  Drug uptake: 2.38 %ID
[17]
  Drug uptake: 8.33 % ID/g
[18]
  Drug uptake: 4.17 %ID
[19]
  Drug uptake: 9.43 % ID/g
[20]
  Drug uptake: 1.43 % ID/g
[21]
  Drug uptake: 2.51 % ID/g
[22]
  Drug uptake: 2.2 % ID/g
[23]
  Drug uptake: 4.4 % ID/g
[24]
  Drug uptake: 1.58 %ID
[25]
  Drug uptake: 0.64 % ID/g
[26]
  Drug uptake: 17.2 % ID/g
[27]
  Drug uptake: 0.45 % ID/g
[28]
  Drug uptake: 0.15 % ID/g
[29]
  Drug uptake: 10.2 % ID/g
[30]
  Drug uptake: 37.8 % ID/g
[31]
  Drug uptake: 0.7 % ID/g
[32]
  Drug uptake: 4.74 % ID/g
[33]
  Drug uptake: 8.73 % ID/g
[34]
  Drug uptake: 5.68 % ID/g
[35]
  Drug uptake: 3.81 % ID/g
[36]
  Drug uptake: 3.5 % ID/g
[37]
  Drug uptake: 30.6 % ID/g
[38]
  Drug uptake: 0.39 % ID/g
[39]
  Drug uptake: 3.87 % ID/g
[40]
  Drug uptake: 1.97 %ID
[41]
  Drug uptake: 1.47 % ID/g
[42]
  Drug uptake: 4.87 % ID/g
[43]
  Drug uptake: 4.09 % ID/g
[44]
  Drug uptake: 2.19 % ID/g
[45]
  Drug uptake: 11.9 % ID/g
[46]
  Drug uptake: 0.7 % ID/g
[47]
  Drug uptake: 2.6 % ID/g
[48]
  Drug uptake: 11.6 % ID/g
[49]
  Drug uptake: 4.12 % ID/g
[50]
  Drug uptake: 1.64 % ID/g

From ChEMBL document CHEMBL6120977, “Structure-Affinity-Pharmacokinetics Relationships of Novel 18F-Labeled 1,4-Diazepane Derivatives for Orexin 1 Receptor Imaging” (J Med Chem, 2024)
